According to publication PMC6359543, “Efficacy of Azatyrosine-Phenylbutyric Hydroxamides, a Histone Deacetylase Inhibitor, on Chemotherapy-Induced Gastrointestinal Mucositis” (International Journal of Molecular Sciences, 2019):
Read-outs that look alike come from different tables or passages of the source.

Experiments:
[1] = test system: Salmonella typhimurium TA100; assay type: cell-based
[2] = test system: male ICR mice; assay: Micronucleus test; conditions: mouse, in vivo
Experimental: Male ICR mice (n = 5) were administered AzP orally by gavage, at doses of 5, 50, and 500 mg/kg body weight. […] At 24, 48, and 72 h after dosing, 2-μL blood samples were collected from the tail vein onto a slide stained with acridine orange (40 μg/mL). The ratio (%) of polychromatic erythrocytes (PCEs) to total erythrocytes was determined using fluorescence microscopy. In addition, the frequency of micronucleated polychromatic erythrocytes (MNPCEs; ‰) was counted to a total of 1000 erythrocytes or PCEs per animal.

[3] = test system: Salmonella typhimurium TA1537; assay: Salmonella/microsome reversion assay (Ames test), TA1537; assay type: cell-based
[4] = test system: Chinese Hamster Ovary cells (CHO-K1); assay: Chromosome aberration assay; assay type: cell-based; conditions: for Number of cells with structural aberrations (%) B: chromosome break / Number of cells with structural aberrations (%) e: exchange / Number of cells with structural aberrations (%) G: chromosome gap / Number of cells with structural aberrations (%) b: chromatid break / Aberrant cell (%) With gap / Aberrant cell (%) Without gap / Number of cells with structural aberrations (%) D: dicentric / Number of cells with structural aberrations (%) g: chromatid gap: Chinese hamster
Experimental: Chinese hamster ovary epithelial cells (CHO-K1, American Type Culture Collection, Manassas, VA, USA) were cultured in 6-cm dishes at a density of 2 × 10^5 cells/mL for chromosomal abnormality analysis. […] Colemid (0.1 μg/mL) was administered 3 h before trypsinization, followed by treatment with 0.9% sodium citrate at 37 °C and Carnoy’s solution (methanol:acetic acid, 3:1). The cells were stained with 3% Giemsa solution in 0.07 M phosphate buffer (pH 6.8) on glass slides. […] The data were expressed as the total mean number of chromosomal aberrations per treatment ± standard deviation (SD) from three independent experiments.

[5] = test system: Salmonella typhimurium TA98; assay: Salmonella/microsome reversion assay (Ames test), TA98; assay type: cell-based
[6] = test system: C57BL/6 mice
[7] = test system: acetyl-histone H3; assay: Western blot of acetyl-histone H3 in IEC-6 cells; assay type: cell-based, Rat; conditions: AzP 5, 10 and 20 μM, 24 h
Experimental: Figure 3 In vitro histone deacetylase (HDAC) activity. […] Cell lysates were used for acetyl-histone H3 protein expression by Western blot. Data are expressed as means ± SD from 3 independent experiments. *** p < 0.001 as compared with the resting and ** p < 0.01 as compared with the resting (B).
IEC-6 cells were incubated in different AzP concentrations with/without LPS stimulation for 24 h. The homogenate from cells or tissues was then centrifuged at 14,000× g for 10 min at 4 °C and the supernatant was collected. Protein separation was performed using 10% reducing SDS-PAGE, electrotransferred onto polyvinylidene difluoride (PVDF), and immunoblotted with antibodies against inflammatory proteins as well as β-actin as control. Densitometry was performed using BioLight software V2000.01 (Uhldingen-Mühlhofen, Germany). The optical density of specific protein was normalized to an internal control and expressed as a ratio to control.

[8] = target: T1, HDAC4 (Homo sapiens, UniProt P56524); assay: HDAC fluorometric activity assay, HDAC4; assay type: biochemical
T1 construct: purchased Enzo Life Sciences, Farmingdale, NY, USA
T1 sequence (P56524 whole entry, species assumed): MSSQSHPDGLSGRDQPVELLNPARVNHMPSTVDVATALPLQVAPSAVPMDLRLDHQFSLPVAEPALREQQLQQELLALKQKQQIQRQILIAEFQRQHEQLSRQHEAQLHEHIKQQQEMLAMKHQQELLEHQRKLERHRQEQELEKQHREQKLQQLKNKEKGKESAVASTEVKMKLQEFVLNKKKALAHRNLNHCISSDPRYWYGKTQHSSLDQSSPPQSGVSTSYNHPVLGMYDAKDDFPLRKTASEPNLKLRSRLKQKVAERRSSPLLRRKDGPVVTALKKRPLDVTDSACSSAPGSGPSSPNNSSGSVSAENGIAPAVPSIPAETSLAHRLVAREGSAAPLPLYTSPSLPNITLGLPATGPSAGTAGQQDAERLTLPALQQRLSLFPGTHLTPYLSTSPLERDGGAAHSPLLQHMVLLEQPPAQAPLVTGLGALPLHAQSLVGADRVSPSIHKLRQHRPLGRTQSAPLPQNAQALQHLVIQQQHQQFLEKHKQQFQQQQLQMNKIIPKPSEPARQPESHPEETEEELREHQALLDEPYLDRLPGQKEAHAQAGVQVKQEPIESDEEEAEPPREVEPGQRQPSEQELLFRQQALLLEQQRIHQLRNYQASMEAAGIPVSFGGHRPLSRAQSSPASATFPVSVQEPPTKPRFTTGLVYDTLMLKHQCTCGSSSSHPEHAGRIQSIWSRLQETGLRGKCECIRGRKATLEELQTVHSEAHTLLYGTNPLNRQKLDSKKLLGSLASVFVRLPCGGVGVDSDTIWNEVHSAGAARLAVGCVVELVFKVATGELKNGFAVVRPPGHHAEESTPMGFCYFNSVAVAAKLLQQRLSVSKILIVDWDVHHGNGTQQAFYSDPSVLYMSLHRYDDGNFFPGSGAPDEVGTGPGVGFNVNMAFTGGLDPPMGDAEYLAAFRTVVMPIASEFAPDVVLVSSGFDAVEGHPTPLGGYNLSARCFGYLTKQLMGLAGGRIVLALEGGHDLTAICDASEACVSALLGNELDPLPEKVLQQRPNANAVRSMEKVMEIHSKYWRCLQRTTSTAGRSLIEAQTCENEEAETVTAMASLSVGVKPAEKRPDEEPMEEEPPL
Experimental: (§1) Pan HDAC enzyme (all the known class I HDACs-HDAC1, HDAC2, HDAC3, HDAC8 and class II HDACs 4-7, 9 and 10), HDAC subtype 1, 3 and 4 activity were determined by using the HDAC fluorometric cellular activity assay (Enzo Life Sciences, Farmingdale, NY, USA) according to the manufacturer’s protocol. […] Percent activity for each of the test compounds is calculated as follows:
(§2) Activity = {(Sc − B)/(S° − B)} × 100. […] IC50 was then calculated and represented as mean ± SD.

[9] = target: T2, HDAC3 (Homo sapiens, UniProt O15379); assay: HDAC fluorometric activity assay, HDAC3; assay type: biochemical
T2 construct: purchased Enzo Life Sciences, Farmingdale, NY, USA
T2 sequence (O15379 whole entry, species assumed): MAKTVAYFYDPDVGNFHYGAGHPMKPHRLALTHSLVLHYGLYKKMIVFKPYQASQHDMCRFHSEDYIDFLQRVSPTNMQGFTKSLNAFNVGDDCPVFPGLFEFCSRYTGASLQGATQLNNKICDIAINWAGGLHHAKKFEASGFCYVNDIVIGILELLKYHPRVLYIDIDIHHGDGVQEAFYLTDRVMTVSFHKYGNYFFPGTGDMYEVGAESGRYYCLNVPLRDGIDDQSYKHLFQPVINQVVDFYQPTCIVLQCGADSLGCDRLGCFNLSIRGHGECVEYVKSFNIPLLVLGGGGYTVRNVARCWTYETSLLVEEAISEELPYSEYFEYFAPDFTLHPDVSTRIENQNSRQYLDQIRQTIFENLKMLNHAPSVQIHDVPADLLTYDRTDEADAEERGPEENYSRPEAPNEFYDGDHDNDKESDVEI
T2 sequence (O75376 395-489 partner limits assumed, species assumed): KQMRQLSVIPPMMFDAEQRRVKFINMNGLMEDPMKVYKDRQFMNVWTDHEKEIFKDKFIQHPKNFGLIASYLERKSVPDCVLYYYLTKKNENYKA
Experimental: as §1, §2

[10] = target: Pan HDAC enzyme; assay: HDAC fluorometric activity assay, pan HDAC; assay type: biochemical
Experimental: as §1, §2

## CC(C)(C)OC(=O)NC(Cc1ccc(OCc2ccccc2)cn1)C(=O)Nc1ccc(CCCC(=O)NO)cc1 (stereo not drawn) [AzP, Azatyrosine-phenylbutyric hydroxamides]
[1]; -S9
  Ames test result, TA100 (-S9): Negative
[1]; AzP 0.00245 mg/plate
  Revertant colonies per plate (+S9) TA100: 106.7±2.2
  Revertant colonies per plate (-S9) TA100: 81±5
[1]; AzP 0.0049 mg/plate
  Revertant colonies per plate (+S9) TA100: 106±4.4
  Revertant colonies per plate (-S9) TA100: 78.7±2.7
[1]; AzP 0.0098 mg/plate
  Revertant colonies per plate (+S9) TA100: 107.3±1.3
  Revertant colonies per plate (-S9) TA100: 81.7±2.7
[1]; AzP 0.0195 mg/plate
  Revertant colonies per plate (+S9) TA100: 110.3±3.8
  Revertant colonies per plate (-S9) TA100: 89.7±9
[1]; AzP 0.0391 mg/plate
  Revertant colonies per plate (+S9) TA100: 150.3±19.7
  Revertant colonies per plate (-S9) TA100: 90.8±9.6
[1]; AzP 0.0781 mg/plate
  Revertant colonies per plate (+S9) TA100: 153±3.1
  Revertant colonies per plate (-S9) TA100: 88.7±1.2
[1]; AzP 0.156 mg/plate
  Revertant colonies per plate (+S9) TA100: 104±8
[1]; AzP 0.3125 mg/plate
  Revertant colonies per plate (+S9) TA100: 92.2±5.2
[1]; second S9 group
  Ames test result, TA100 (|S9): Negative
[2]
  Micronucleus Test result: Negative
[3]; -S9
  Ames test result, TA1537 (-S9): Negative
[3]; AzP 0.00245 mg/plate
  Revertant colonies per plate (+S9) TA1537: 32.3±3
  Revertant colonies per plate (-S9) TA1537: 15±0.5
[3]; AzP 0.0049 mg/plate
  Revertant colonies per plate (+S9) TA1537: 35.3±2.2
  Revertant colonies per plate (-S9) TA1537: 10.7±0.9
[3]; AzP 0.0098 mg/plate
  Revertant colonies per plate (+S9) TA1537: 29.3±2.2
  Revertant colonies per plate (-S9) TA1537: 10±0.6
[3]; AzP 0.0195 mg/plate
  Revertant colonies per plate (+S9) TA1537: 27.3±2.7
  Revertant colonies per plate (-S9) TA1537: 10±2
[3]; AzP 0.0391 mg/plate
  Revertant colonies per plate (+S9) TA1537: 22.1±2.5
  Revertant colonies per plate (-S9) TA1537: 11.8±6
[3]; AzP 0.0781 mg/plate
  Revertant colonies per plate (+S9) TA1537: 16±2.5
  Revertant colonies per plate (-S9) TA1537: 12±4.9
[3]; AzP 0.156 mg/plate
  Revertant colonies per plate (+S9) TA1537: 18±1
  Revertant colonies per plate (-S9) TA1537: 14.7±2
[3]; second S9 group
  Ames test result, TA1537 (|S9): Negative
[4]
  Chromosome aberration assay result: Negative
[4]; 3 h, 5 µg/mL
  Number of cells with structural aberrations (%) B: chromosome break: 0.00±0.00%
  Number of cells with structural aberrations (%) e: exchange: 0.00±0.00%
[4]; 3 h, 10 µg/mL
  Number of cells with structural aberrations (%) B: chromosome break: 0.00±0.00%
  Number of cells with structural aberrations (%) G: chromosome gap: 0.00±0.00%
  Number of cells with structural aberrations (%) b: chromatid break: 0.00±0.00%
  Number of cells with structural aberrations (%) e: exchange: 0.00±0.00%
[4]; 3 h, 20 µg/mL
  Number of cells with structural aberrations (%) B: chromosome break: 0.00±0.00%
  Number of cells with structural aberrations (%) G: chromosome gap: 0.00±0.00%
[4]; 24 h, 5 µg/mL
  Aberrant cell (%) With gap: 4.33±0.58%
  Aberrant cell (%) Without gap: 1.67±1.53%
  Number of cells with structural aberrations (%) B: chromosome break: 0.00±0.00%
  Number of cells with structural aberrations (%) D: dicentric: 0.33±0.58%
  Number of cells with structural aberrations (%) G: chromosome gap: 0.33±0.58%
  Number of cells with structural aberrations (%) b: chromatid break: 1.00±1.00%
  Number of cells with structural aberrations (%) e: exchange: 0.33±0.58%
  Number of cells with structural aberrations (%) g: chromatid gap: 2.33±1.53%
[4]; 24 h, 10 µg/mL
  Aberrant cell (%) With gap: 4.00±1.00%
  Aberrant cell (%) Without gap: 2.67±1.53%
  Number of cells with structural aberrations (%) B: chromosome break: 0.00±0.00%
  Number of cells with structural aberrations (%) D: dicentric: 0.67±0.58%
  Number of cells with structural aberrations (%) G: chromosome gap: 0.67±0.58%
  Number of cells with structural aberrations (%) b: chromatid break: 1.33±0.58%
  Number of cells with structural aberrations (%) e: exchange: 0.67±0.58%
  Number of cells with structural aberrations (%) g: chromatid gap: 1.33±0.58%
[4]; 24 h, 20 µg/mL
  Aberrant cell (%) With gap: 4.33±0.58%
  Aberrant cell (%) Without gap: 0.67±0.58%
  Number of cells with structural aberrations (%) B: chromosome break: 0.33±0.58%
  Number of cells with structural aberrations (%) D: dicentric: 0.00±0.00%
  Number of cells with structural aberrations (%) G: chromosome gap: 0.33±0.58%
  Number of cells with structural aberrations (%) b: chromatid break: 0.00±0.00%
  Number of cells with structural aberrations (%) e: exchange: 0.00±0.00%
  Number of cells with structural aberrations (%) g: chromatid gap: 3.33±0.58%
[5]; -S9
  Ames test result, TA98 (-S9): Negative
[5]; AzP 0.00245 mg/plate
  Revertant colonies per plate (+S9) TA98: 59.7±3.8
  Revertant colonies per plate (-S9) TA98: 42±4.6
[5]; AzP 0.0049 mg/plate
  Revertant colonies per plate (+S9) TA98: 58.3±4.7
  Revertant colonies per plate (-S9) TA98: 29±5.7
[5]; AzP 0.0098 mg/plate
  Revertant colonies per plate (+S9) TA98: 56.3±3.4
  Revertant colonies per plate (-S9) TA98: 24±5.4
[5]; AzP 0.0195 mg/plate
  Revertant colonies per plate (+S9) TA98: 59.7±0.7
  Revertant colonies per plate (-S9) TA98: 33.7±3
[5]; AzP 0.0391 mg/plate
  Revertant colonies per plate (+S9) TA98: 62.7±2.3
  Revertant colonies per plate (-S9) TA98: 33.7±2.8
[5]; AzP 0.0781 mg/plate
  Revertant colonies per plate (+S9) TA98: 56.3±2.2
[5]; AzP 0.156 mg/plate
  Revertant colonies per plate (+S9) TA98: 61±1.2
[5]; AzP 0.3125 mg/plate
  Revertant colonies per plate (+S9) TA98: 69.7±5.8
[5]; AzP 0.625 mg/plate
  Revertant colonies per plate (+S9) TA98: 64±2.9
[5]; second S9 group
  Ames test result, TA98 (|S9): Negative
[6]; 250 mg/kg/day group, days 3 and 5
  structure of intestinal mucosa, villus length and crypt depth (H&E): restored
[6]; day 5, AzP 50 mg/kg gavage days −1, 0, 1 + cisplatin 11 mg/kg
  Relative mean body weight (day 0 = 100%): 78.7 ± 4.7%
[6]; day 5, AzP 100 mg/kg gavage days −1, 0, 1 + cisplatin 11 mg/kg
  Relative mean body weight (day 0 = 100%): 80.5 ± 3.4%
[6]; day 5, AzP 250 mg/kg gavage days −1, 0, 1 + cisplatin 11 mg/kg
  Relative mean body weight (day 0 = 100%): 89.1 ± 8.1%
[6]; day 5, cisplatin 11 mg/kg
  MCP-1 expression in intestine (IHC): dose-dependently reduced
  Serum IL-6 level (ELISA): inhibit cisplatin-induced IL-6 production in a dose-dependent manner
  TNF-α expression in intestine (IHC): dose-dependently reduced
[7]
  histone acetylation (acetyl-histone H3, Western blot): elevated histone acetylation
[8]
  IC50: 1.97 ± 0.11 µM
[9]
  IC50: 0.66 ± 0.099 µM
[10]
  IC50: 1.65 ± 0.103 µM
